Test results reported in patent US11795200B2, “Nano small peptide and its use in preparation of drugs for treating and preventing fundus vascular diseases” (FUTU Biotech Co., Ltd., priority 2021, dated 2023).
Like-named read-outs stand apart in the source and are kept apart here. Non-standard residues stand in square brackets, D forms with d. Residues, ends and D or L forms follow the SMILES beside them. No end group written: not given here. *: point of attachment. Palmitoyl = CCCCCCCCCCCCCCCC(=O)*

Tests used:
sSema4D [1] = target: T1, sSema4D (Mus musculus, UniProt O09126); assay: Reduction of sSema4D concentration in endothelial cell culture medium (ELISA); assay type: cell-based; conditions: for sSema4D concentration: medium with 1600 ng/mL sSema4D, FH 20 μM, BMA-12 2 μg/μL; for sustained reduction of sSema4D concentration: added to endothelial cells, 12 to 48 h
T1 construct: the free Sema4D protein after enzyme cleavage of Sema4D; purchased R&D Systems
T1 sequence (O09126 24-733): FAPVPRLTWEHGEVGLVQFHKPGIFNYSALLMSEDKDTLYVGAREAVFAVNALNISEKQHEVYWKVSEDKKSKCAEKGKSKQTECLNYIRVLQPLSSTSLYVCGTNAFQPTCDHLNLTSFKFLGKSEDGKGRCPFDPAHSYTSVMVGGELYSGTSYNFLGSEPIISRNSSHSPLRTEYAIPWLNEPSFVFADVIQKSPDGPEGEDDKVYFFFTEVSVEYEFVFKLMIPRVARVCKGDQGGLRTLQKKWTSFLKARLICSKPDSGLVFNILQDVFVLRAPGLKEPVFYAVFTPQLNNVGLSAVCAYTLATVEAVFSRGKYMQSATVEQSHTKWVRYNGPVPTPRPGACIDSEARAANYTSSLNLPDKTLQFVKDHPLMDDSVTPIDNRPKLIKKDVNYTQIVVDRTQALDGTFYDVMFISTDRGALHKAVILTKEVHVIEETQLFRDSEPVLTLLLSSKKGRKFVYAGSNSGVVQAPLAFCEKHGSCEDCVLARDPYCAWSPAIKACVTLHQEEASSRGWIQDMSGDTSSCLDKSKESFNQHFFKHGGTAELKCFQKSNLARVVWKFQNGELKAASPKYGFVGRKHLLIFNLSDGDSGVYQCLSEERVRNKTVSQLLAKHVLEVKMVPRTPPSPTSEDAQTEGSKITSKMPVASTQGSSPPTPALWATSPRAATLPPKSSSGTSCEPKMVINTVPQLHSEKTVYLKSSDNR
Procedure: Endothelial cells were uniformly seeded in 6-well cell culture plates and cultured in a 5% CO2 incubator at 37° C. for 24 h. The nano small peptides FH, FG, DMSO, and Sema4D neutralizing antibody (BMA-12) were added to the medium (the concentration of sSema4D in the medium was 1600 ng/mL) to ensure that the final concentration of FH and FG was 20 μM, and the final concentration of the sSema4D neutralizing antibody (BMA-12) was 2 μg/μL, an equal volume of DMSO was then added as a control, and the culture plates were cultured in an incubator for 12, 24, 36, and 48 h, respectively. The cell culture medium was then collected and centrifuged. The supernatant was taken and the expression of Sema4D protein in the supernatant was detected using an ELISA kit (Shanghai Yuanmu Biotechnology Co., Ltd.).

OIR model mice = assay: Evans blue leakage test, fundus vascular leakage; assay type: in vivo, mouse; conditions: for vascular leakage of the fundus: 2 nmol injected into the vitreous; for treatment effect on vascular leakage compared with anti-Sema4D: 2 nmol vs 1 μg BMA-12, intravitreal
[2] = tested on: primary mouse brain microvascular pericytes; assay: sSema4D-induced pericyte migration (transwell experiment); assay type: cell-based; conditions: 36 h; for sSema4D-induced pericyte migration: 20 μM, sSema4D 1600 ng/mL
Procedure: The primary mouse brain microvascular pericytes were starved with 0.5% PM for 4 to 6 h. The pericytes were seeded in the upper layer of a 24-well transwell chamber (8 μm). The medium containing FH (20 μM), FG (20 μM), and Sema4D neutralizing antibody (BMA-12) (2 μg/μL) (the concentration of sSema4D in the medium is 1600 ng/mL) was added to the lower chamber, and an equal volume of DMSO was added as control. The cells were incubated in a 5% CO2 incubator at 37° C. for 36 h. 36 h later, the cells on the bottom of the chamber were fixed with 4% paraformaldehyde and stained with crystal violet, and the pericytes that penetrated to the bottom of the chamber were counted under a microscope.

[3] = tested on: endothelial cells (primary endothelial cells of mouse brain microvessels); assay: CCK8 cytotoxicity assay; conditions: 20 μM; 12, 14, and 36 h
sSema4D [4] = target: T1, sSema4D; assay: ELISA of sSema4D in vitreous humor after eye drops; assay type: in vivo; parameters: from tissue; host or cells: vitreous humor of C57 mice; conditions: eye drops 10 μL of 20 μM, twice daily, 3 days
Text: In this example, 8-week-old C57 male mice were used, with ten data points in each group, and each data point was the average of the experimental results of 5 mice.
The water on the eyeballs was then removed with filter paper to release and collect the vitreous humor. ELISA kit (Shanghai Yuanmu Biotechnology Co., Ltd.) was used to detect the expression of sSema4D protein in vitreous humor.
Control group was instilled with the same volume of PBS solution; vehicle group was instilled the same volume of artificial tears (Systane).

[5] = In vivo imaging of small animals, entry into vitreous humor; conditions: eye drops (10 μL, 20 μM, three times) and vitreous injection (1 μl, 20 μM)
Procedure: (§1) 10 μL of FH and FG eye drops (with the concentration of 20 μM, the solvent therein was artificial tears) were instilled on the eyeball surface of mice (8-week-old C57 male mice), once at an interval of 1 h. One hour after the third eye drop, the mice were anesthetized to have cardiac perfusion, the eyeballs of the mice were taken out, the connective tissue on the eye surface was trimmed, and the eyeballs were washed with PBS solution for several times to remove the nano eye drops from the surface of the eyeballs. The eyeball was placed in a small animal imager (at emission wavelength of 535 nm and excitation wavelength of 490 nm) for image acquisition.

[6] = mouse, in vivo
Procedure: as §1

Compound	sSema4D concentration (sSema4D [1]; 24 h, endothelial cells)	sSema4D concentration (sSema4D [1]; 36 h, endothelial cells)	sustained reduction of sSema4D concentration (sSema4D [1]; 20 μM)	effect on sSema4D concentration, FH compared with FG (sSema4D [1]; endothelial cells, within the same action time, 20 μM)	vascular leakage of the fundus (OIR model mice)	treatment effect on vascular leakage compared with anti-Sema4D (OIR model mice)	inhibition of pericyte migration compared with BMA-12 ([2]; 20 μM vs BMA-12 2 μg/μL)	sSema4D-induced pericyte migration [2]	toxic effects on endothelial cells [3]	expression of sSema4D protein in the vitreous humor (sSema4D [4])	entry into the vitreous humor of mice [5]	entry into the vitreous humor of mice [6]
CCCCCCCCCCCCCCCC(=O)N[C@H](Cc1ccccc1)C(=O)N[C@@H](Cc1ccccc1)C(=O)N[C@H](C(=O)N[C@@H](CC(C)C)C(=O)N[C@@H](CCCCN)C(=O)N[C@@H](CCCCN)C(=O)N[C@@H](CCC(N)=O)C(=O)N[C@@H](CCCCN)C(=O)N[C@@H](CCCNC(=N)N)C(=O)N1CCC[C@H]1C(=O)N[C@@H](CCCNC(=N)N)C(=O)N[C@@H](Cc1c[nH]cn1)C(=O)O)C(C)C [FH] (Palmitoyl-[dF]FVLKKQKRPRH-OH)	can reduce the sSema4D concentration	can still reduce the sSema4D concentration	can sustainably reduce the concentration of sSema4D	better than that of FG	can inhibit vascular leakage of the fundus	comparable to that of anti-Sema4D	more effective in inhibiting pericyte migration than Sema4D neutralizing antibody (BMA-12)	can significantly inhibit the sSema4D-induce pericyte migration	did not cause toxic effects	reduce the expression of sSema4D protein in the vitreous humor	entered the vitreous humor of mice	–
Palmitoyl-FFVLKKNKAAKG [FG]	–	–	can sustainably reduce the concentration of sSema4D	–	can inhibit vascular leakage of the fundus	comparable to that of anti-Sema4D	–	can significantly inhibit the sSema4D-induce pericyte migration	–	reduce the expression of sSema4D protein in the vitreous humor	–	entered the vitreous humor of mice
